Results as given in US6624310B1, “Epothilone minor constituents” (Gesellschaft fuer Biotechnologische Forschung, mbH (GBF), priority 1998, dated 2003).
In brackets after ≈: the same amount, converted by molar mass. Like-named read-outs stand apart in the source and are kept apart here.

Test system: mouse fibroblasts (L929)
Experiment: Activity against mouse fibroblasts (L929)
Type: cell-based
Conditions: for IC50: read-out: Activity against mouse fibroblasts (L929, IC 50/ng/ml)

Compound	Activity against mouse fibroblasts (L929, IC 50/ng/ml) (L929 mouse fibroblasts)	other results
C/C(=C\c1csc(C)n1)[C@@H]1C/C=C/CCC[C@H](C)[C@H](O)[C@@H](C)C(=O)[C@@H](C)[C@@H](O)CC(=O)O1 (relative stereo) [Compound 28, trans-Epothilone C1]	(28) 400 ng/ml	–
C/C(=C\c1csc(C)n1)[C@@H]1C/C=C/CCC[C@H](C)[C@H](O)[C@@H](C)C(=O)[C@H](C)[C@@H](O)CC(=O)O1 (relative stereo) [Compound 29, trans-Epothilone C2]	(29) 80 ng/ml	–
C/C(=C\c1csc(C)n1)[C@@H]1C[C@@H]2O[C@@H]2CCC[C@H](C)[C@H](O)[C@@H](C)C(=O)C(C)(C)[C@@H](O)CC(=O)O1 [Compound 1, Epothilone A, reference compound]	(1) 4 ng/ml	–
C/C(=C\c1csc(C)n1)[C@@H]1C[C@@H]2O[C@]2(C)CCC[C@H](C)[C@H](O)[C@@H](C)C(=O)C(C)(C)[C@@H](O)CC(=O)O1 [Compound 2, Epothilone B, reference compound]	(2) 1-2 ng/ml	–
C/C(=C\c1csc(CO)n1)[C@@H]1C[C@@H]2O[C@@H]2CCC[C@H](C)[C@H](O)[C@@H](C)C(=O)C(C)(C)[C@@H](O)CC(=O)O1 [Compound 3, Epothilone E, reference compound]	(3) 10 ng/ml	–
C/C(=C\c1csc(CO)n1)[C@@H]1C[C@@H]2O[C@]2(C)CCC[C@H](C)[C@H](O)[C@@H](C)C(=O)C(C)(C)[C@@H](O)CC(=O)O1 [Compound 4, Epothilone F, reference compound]	–	Activity against mouse fibroblasts (L929, IC 50/ng/ml): (4) 1.5 ng/ml
C/C(=C\c1csc(C)n1)[C@@H]1C[C@@H]2O[C@@H]2CCC[C@H](C)[C@H](O)[C@@H](C)C(=O)[C@H](C)[C@@H](O)CC(=O)O1 [Compound 5, Epothilone A1]	(5) 20 ng/ml	–
C/C(=C\c1csc(C)n1)[C@@H]1C[C@@H]2O[C@@H]2CCC[C@H](C)[C@H](O)[C@@H](C)C(=O)[C@@H](C)[C@@H](O)CC(=O)O1 [Compound 6, Epothilone A2]	(6) 7 ng/ml	–
Cc1nc(/C=C/[C@@H]2C[C@@H]3O[C@@H]3CCC[C@H](C)[C@H](O)[C@@H](C)C(=O)C(C)(C)[C@@H](O)CC(=O)O2)cs1 [Compound 7, Epothilone A8]	(7) 20 ng/ml	–
Cc1nc(/C=C(\CO)[C@@H]2C[C@@H]3O[C@@H]3CCC[C@H](C)[C@H](O)[C@@H](C)C(=O)C(C)(C)[C@@H](O)CC(=O)O2)cs1 [Compound 8, Epothilone A9]	(8) 100 ng/ml	–
CCc1nc(/C=C(\C)[C@@H]2C[C@@H]3O[C@]3(C)CCC[C@H](C)[C@H](O)[C@@H](C)C(=O)C(C)(C)[C@@H](O)CC(=O)O2)cs1 [Compound 9, Epothilone B10]	–	IC50 (L929 mouse fibroblasts): 1.5 ng/mL (≈ 0.00288 µM)
C/C(=C\c1coc(C)n1)[C@@H]1C[C@@H]2O[C@]2(C)CCC[C@H](C)[C@H](O)[C@@H](C)C(=O)C(C)(C)[C@@H](O)CC(=O)O1 [Compound 11, Epothilone G2]	(11) 1 ng/ml	–
C/C(=C\c1coc(C)n1)[C@@H]1C/C=C\CCC[C@H](C)[C@H](O)[C@@H](C)C(=O)C(C)(C)[C@@H](O)CC(=O)O1 [Compound 12, Epothilone H1]	(12) 120 ng/ml	–
C/C1=C/C[C@@H](/C(C)=C/c2coc(C)n2)OC(=O)C[C@H](O)C(C)(C)C(=O)[C@H](C)[C@@H](O)[C@@H](C)CCC1 [Compound 13, Epothilone H2]	(13) 11 ng/ml	–
C/C(=C\c1csc(C)n1)[C@@H]1C/C=C\CCC[C@H](C)[C@H](O)[C@@H](C)C(=O)C(C)(C)[C@@H](O)CC(=O)O1 [Compound 14, Epothilone C, reference compound]	(14) 50-100 ng/ml	–
C/C1=C/C[C@@H](/C(C)=C/c2csc(C)n2)OC(=O)C[C@H](O)C(C)(C)C(=O)[C@H](C)[C@@H](O)[C@@H](C)CCC1 [Compound 15, Epothilone D, reference compound]	(15) 20 ng/ml	–
C/C(=C\c1csc(C)n1)[C@@H]1C/C=C\CCC[C@H](C)[C@H](O)[C@@H](C)C(=O)[C@H](C)[C@@H](O)CC(=O)O1 [Compound 16, Epothilone C1]	(16) 200 ng/ml	–
C/C1=C/C[C@@H](/C(C)=C/c2csc(C)n2)OC(=O)C[C@H](O)[C@@H](C)C(=O)[C@H](C)[C@@H](O)[C@@H](C)CCC1 [Compound 17, Epothilone D1]	(17) 20 ng/ml	–
C/C1=C/C[C@@H](/C(C)=C/c2csc(C)n2)OC(=O)C[C@H](O)[C@H](C)C(=O)[C@H](C)[C@@H](O)[C@@H](C)CCC1 [Compound 19, Epothilone D2]	(19) 12 ng/ml	–
C/C(=C\c1csc(C)n1)[C@@H]1C/C=C\CCC[C@H](C)[C@H](O)CC(=O)C(C)(C)[C@@H](O)CC(=O)O1 [Compound 20, Epothilone C3]	(20) 1500 ng/ml	–
C/C(=C\c1csc(C)n1)[C@@H]1C/C=C\CCCC[C@H](O)[C@@H](C)C(=O)C(C)(C)[C@@H](O)CC(=O)O1 [Compound 21, Epothilone C4]	(21) 800 ng/ml	–
C/C(=C\c1csc(C)n1)[C@@H]1C/C=C\CC/C=C(\C)[C@H](O)[C@@H](C)C(=O)C(C)(C)[C@@H](O)CC(=O)O1 [Compound 22, Epothilone C5]	(22) 1500 ng/ml	–
C/C(=C\c1csc(C)n1)[C@@H]1C/C=C\C=C\C[C@H](C)[C@H](O)[C@@H](C)C(=O)C(C)(C)[C@@H](O)CC(=O)O1 [Compound 24, Epothilone C6]	–	IC50 (L929 mouse fibroblasts): 120 ng/mL (≈ 0.252 µM)
Cc1nc(/C=C/[C@@H]2C/C=C\CCC[C@H](C)[C@H](O)[C@@H](C)C(=O)C(C)(C)[C@@H](O)CC(=O)O2)cs1 [Compound 26, Epothilone C8]	(26) 250 ng/ml	–
Cc1nc(/C=C(\CO)[C@@H]2C/C=C\CCC[C@H](C)[C@H](O)[C@@H](C)C(=O)C(C)(C)[C@@H](O)CC(=O)O2)cs1 [Compound 27, Epothilone C9]	(27) 200 ng/ml	–
C/C1=C/C[C@@H](/C(C)=C/c2csc(C)n2)OC(=O)C[C@H](O)C(C)C(=O)C(C)CCC1 (stereo partly shown) [Compound 36, Epothilone K]	–	IC50 (L929 mouse fibroblasts): 180 ng/mL (≈ 0.429 µM)
C/C(=C\c1csc(C)n1)[C@@H](O)C/C=C\CCC[C@H](C)[C@H](O)[C@@H](C)C(=O)C(C)C [Compound 37]	–	IC50 (L929 mouse fibroblasts): 50 ng/mL (≈ 0.123 µM)
Epothilone D5 [Compound 23]	(23) 200 ng/ml	–
